# Measurements taken from publication PMC5218480 (PLoS ONE, 2017).
# Test system: MV-4-11 cells
# Test: Gene expression microarray analysis (Affymetrix PrimeView) and GSEA
# Assay type: cell-based, human
# Set-up: RFU PODN (11730768_x_at) / Fold change /veh PODN (11730768_x_at) / RFU LINC00158 (11744669_a_at) / Fold change /veh LINC00158 (11744669_a_at) / RFU DUSP10 (11751237_a_at) / Fold change /veh DUSP10 (11751237_a_at) / RFU ID3 (11757404_x_at) / Fold change /veh ID3 (11757404_x_at) / RFU PLEKHG5 (11737974_s_at) / Fold change /veh PLEKHG5 (11737974_s_at) / RFU LRRC4B (11730491_at) / Fold change /veh LRRC4B (11730491_at) / RFU GIMAP4 (11747438_a_at) / Fold change /veh GIMAP4 (11747438_a_at) / RFU KRT8 (11758183_x_at) / Fold change /veh KRT8 (11758183_x_at) / RFU CNN1 (11734310_a_at) / Fold change /veh CNN1 (11734310_a_at) / RFU VPS37D (11726825_at) / Fold change /veh VPS37D (11726825_at) / RFU C10orf10 (11716522_x_at) / Fold change /veh C10orf10 (11716522_x_at) / RFU KIR2DL2 /// KIR2DL4 /// KIR2DL5A /// KIR2DL5B /// KIR2DS1 /// KIR2DS2 /// KIR2DS3 /// KIR2DS4 /// KIR3DL3 /// KIR3DL3 /// KIR3DS1 (11738374_at) / Fold change /veh KIR2DL2 /// KIR2DL4 /// KIR2DL5A /// KIR2DL5B /// KIR2DS1 /// KIR2DS2 /// KIR2DS3 /// KIR2DS4 /// KIR3DL3 /// KIR3DL3 /// KIR3DS1 (11738374_at) / RFU C1QL1 (11718748_at) / Fold change /veh C1QL1 (11718748_at) / RFU TMPRSS4 (11747572_a_at) / Fold change /veh TMPRSS4 (11747572_a_at) / RFU HAMP (11756126_x_at) / Fold change /veh HAMP (11756126_x_at) / RFU RNFT2 (11725882_a_at) / Fold change /veh RNFT2 (11725882_a_at) / RFU NR4A2 (11747474_a_at) / Fold change /veh NR4A2 (11747474_a_at) / RFU ABCC12 (11746883_a_at) / Fold change /veh ABCC12 (11746883_a_at) / RFU TMEM136 (11760407_x_at) / Fold change /veh TMEM136 (11760407_x_at) / RFU CLDN22 /// WWC2 (11732394_at) / Fold change /veh CLDN22 /// WWC2 (11732394_at) / RFU HLA-DPB1 (11760878_x_at) / Fold change /veh HLA-DPB1 (11760878_x_at) / RFU SPINT1 (11716480_a_at) / Fold change /veh SPINT1 (11716480_a_at) / RFU GAP43 (11754022_s_at) / Fold change /veh GAP43 (11754022_s_at) / RFU A4GNT (11735810_at) / Fold change /veh A4GNT (11735810_at) / RFU PRB3 (11715151_x_at) / Fold change /veh PRB3 (11715151_x_at) / RFU TUBB4B (11761932_at) / Fold change /veh TUBB4B (11761932_at) / RFU CAPN14 (11732068_a_at) / Fold change /veh CAPN14 (11732068_a_at) / RFU TMCC2 (11721928_a_at) / Fold change /veh TMCC2 (11721928_a_at) / RFU IRGQ (11745062_a_at) / Fold change /veh IRGQ (11745062_a_at) / RFU FAM174B (11720279_a_at) / Fold change /veh FAM174B (11720279_a_at) / RFU TMPRSS4 (11748680_a_at) / Fold change /veh TMPRSS4 (11748680_a_at) / RFU FAM212B (11763350_a_at) / Fold change /veh FAM212B (11763350_a_at) / RFU PLEKHG5 (11743358_a_at) / Fold change /veh PLEKHG5 (11743358_a_at) / RFU ZSCAN30 (11745921_a_at) / Fold change /veh ZSCAN30 (11745921_a_at) / RFU CMKLR1 (11741424_a_at) / Fold change /veh CMKLR1 (11741424_a_at) / RFU LOC101060620 /// MAPK8IP1 (11723275_at) / Fold change /veh LOC101060620 /// MAPK8IP1 (11723275_at) / RFU SPTSSB (11747773_x_at) / Fold change /veh SPTSSB (11747773_x_at) / RFU PRSS12 (11739890_at) / Fold change /veh PRSS12 (11739890_at) / RFU BIN1 (11741810_x_at) / Fold change /veh BIN1 (11741810_x_at) / RFU WNT11 (11732464_a_at) / Fold change /veh WNT11 (11732464_a_at) / RFU C10orf10 (11716521_a_at) / Fold change /veh C10orf10 (11716521_a_at) / RFU C5orf56 (11738089_at) / Fold change /veh C5orf56 (11738089_at) / RFU CYB561 (11721691_x_at) / Fold change /veh CYB561 (11721691_x_at) / RFU ANKRD19P (11752326_a_at) / Fold change /veh ANKRD19P (11752326_a_at) / RFU OR2T12 /// OR2T33 /// OR2T8 (11738714_s_at) / Fold change /veh OR2T12 /// OR2T33 /// OR2T8 (11738714_s_at) / RFU VCAN (11748164_a_at) / Fold change /veh VCAN (11748164_a_at) / RFU JSRP1 (11732532_at) / Fold change /veh JSRP1 (11732532_at) / RFU KRTAP10-11 (11738290_x_at) / Fold change /veh KRTAP10-11 (11738290_x_at) / RFU MYO3A (11730013_a_at) / Fold change /veh MYO3A (11730013_a_at) / RFU EBF3 (11725865_a_at) / Fold change /veh EBF3 (11725865_a_at) / RFU CAMK2N1 (11719241_x_at) / Fold change /veh CAMK2N1 (11719241_x_at) / RFU C5orf56 (11738088_a_at) / Fold change /veh C5orf56 (11738088_a_at) / RFU OLFML3 (11715873_a_at) / Fold change /veh OLFML3 (11715873_a_at) / RFU LOC100653217 /// NTM (11731650_a_at) / Fold change /veh LOC100653217 /// NTM (11731650_a_at) / RFU MAPK11 (11762145_a_at) / Fold change /veh MAPK11 (11762145_a_at) / RFU FIZ1 (11724087_x_at) / Fold change /veh FIZ1 (11724087_x_at) / RFU OASL (11726364_x_at) / Fold change /veh OASL (11726364_x_at) / RFU SOX15 (11748057_x_at) / Fold change /veh SOX15 (11748057_x_at) / RFU CD79A (11719716_a_at) / Fold change /veh CD79A (11719716_a_at) / RFU HIST1H1D (11736915_at) / Fold change /veh HIST1H1D (11736915_at) / RFU CASKIN2 (11723855_a_at) / Fold change /veh CASKIN2 (11723855_a_at) / RFU LOC730098 (11760151_x_at) / Fold change /veh LOC730098 (11760151_x_at) / RFU OR4N2 (11742367_at) / Fold change /veh OR4N2 (11742367_at) / RFU PRRT2 (11749266_a_at) / Fold change /veh PRRT2 (11749266_a_at) / RFU SNX32 (11753110_a_at) / Fold change /veh SNX32 (11753110_a_at) / RFU CDHR5 (11726645_a_at) / Fold change /veh CDHR5 (11726645_a_at) / RFU RCAN1 (11760418_a_at) / Fold change /veh RCAN1 (11760418_a_at) / RFU FAM167A (11723789_a_at) / Fold change /veh FAM167A (11723789_a_at) / RFU FAM26E (11764081_at) / Fold change /veh FAM26E (11764081_at) / RFU ISYNA1 (11749810_s_at) / Fold change /veh ISYNA1 (11749810_s_at) / RFU ACY1 (11761880_at) / Fold change /veh ACY1 (11761880_at) / RFU 11764098_at / Fold change /veh 11764098_at / RFU SAMD14 (11745864_x_at) / Fold change /veh SAMD14 (11745864_x_at) / RFU NPB (11741838_a_at) / Fold change /veh NPB (11741838_a_at) / RFU TMPRSS6 (11731388_a_at) / Fold change /veh TMPRSS6 (11731388_a_at) / RFU KRTAP10-2 (11738614_at) / Fold change /veh KRTAP10-2 (11738614_at) / RFU ARHGAP8 /// PRR5-ARHGAP8 (11727945_x_at) / Fold change /veh ARHGAP8 /// PRR5-ARHGAP8 (11727945_x_at) / RFU KRTAP5-7 /// NADSYN1 (11734609_at) / Fold change /veh KRTAP5-7 /// NADSYN1 (11734609_at) / RFU RASL12 (11751679_a_at) / Fold change /veh RASL12 (11751679_a_at) / RFU CDKN2B (11736163_a_at) / Fold change /veh CDKN2B (11736163_a_at) / RFU PRF1 (11729649_at) / Fold change /veh PRF1 (11729649_at) / RFU, ZNF638 /// ZNF638-IT1 / Fold change vs veh, ZNF638 /// ZNF638-IT1 / RFU, PANK3 / Fold change vs veh, PANK3 / RFU, SH3YL1 / Fold change vs veh, SH3YL1 / RFU, ZEB2 / Fold change vs veh, ZEB2 / RFU, NRIP1 / Fold change vs veh, NRIP1 / RFU, PTTG1IP / Fold change vs veh, PTTG1IP / RFU, CAPN2 / Fold change vs veh, CAPN2 / RFU, MED14 / Fold change vs veh, MED14 / RFU, SNORA58 / Fold change vs veh, SNORA58 / RFU, C1orf63 / Fold change vs veh, C1orf63 / RFU, LRRFIP1 / Fold change vs veh, LRRFIP1 / RFU, NDUFAF7 / Fold change vs veh, NDUFAF7 / RFU, SLC12A2 / Fold change vs veh, SLC12A2 / RFU, IBTK / Fold change vs veh, IBTK / RFU, ESF1 / Fold change vs veh, ESF1 / Fold change vs veh, TMEM50B / RFU, TAOK1 / Fold change vs veh, TAOK1 / RFU, ACBD3 / Fold change vs veh, ACBD3 / RFU, TMA16 / Fold change vs veh, TMA16 / RFU, RWDD3 / Fold change vs veh, RWDD3 / RFU, BCAT1 / Fold change vs veh, BCAT1 / RFU, EDEM3 / Fold change vs veh, EDEM3 / RFU, TMEM33 / Fold change vs veh, TMEM33 / RFU, WDR75 / Fold change vs veh, WDR75 / RFU, AHCTF1 / Fold change vs veh, AHCTF1 / RFU, TFRC / Fold change vs veh, TFRC / RFU, ZDHHC17 / Fold change vs veh, ZDHHC17 / RFU, NOM1 / Fold change vs veh, NOM1 / RFU, ARL8B / Fold change vs veh, ARL8B / RFU, ZBTB11 / Fold change vs veh, ZBTB11 / RFU, TAMM41 / Fold change vs veh, TAMM41 / RFU, KIAA1704 /// LOC100996395 / Fold change vs veh, KIAA1704 /// LOC100996395 / RFU, ING1 / Fold change vs veh, ING1 / RFU, TRMT61B / Fold change vs veh, TRMT61B / RFU, FUBP3 / Fold change vs veh, FUBP3 / RFU, TP53 / Fold change vs veh, TP53 / RFU, TNKS2 / Fold change vs veh, TNKS2 / RFU, ZFP14 / Fold change vs veh, ZFP14 / RFU, ACTR2 / Fold change vs veh, ACTR2 / RFU, PPP3R1 / Fold change vs veh, PPP3R1 / RFU, PIK3R1 / Fold change vs veh, PIK3R1 / RFU, HNRNPA1 / Fold change vs veh, HNRNPA1 / RFU, RNF170 / Fold change vs veh, RNF170 / RFU, ZNF28 / Fold change vs veh, ZNF28 / RFU, RNGTT / Fold change vs veh, RNGTT / RFU, OGT / Fold change vs veh, OGT / RFU, BRD1 / Fold change vs veh, BRD1 / RFU, MARS / Fold change vs veh, MARS / RFU, ZNF655 / Fold change vs veh, ZNF655 / RFU, FAHD1 / Fold change vs veh, FAHD1 / RFU, BDP1 / Fold change vs veh, BDP1 / RFU, LRRCC1 / Fold change vs veh, LRRCC1 / RFU, ARID1A / Fold change vs veh, ARID1A / RFU, ZNF146 / Fold change vs veh, ZNF146 / RFU, ZNF330 / Fold change vs veh, ZNF330 / RFU, GPN3 / Fold change vs veh, GPN3 / RFU, C9orf123 / Fold change vs veh, C9orf123 / RFU, N4BP2L2 / Fold change vs veh, N4BP2L2 / RFU, ARFIP1 / Fold change vs veh, ARFIP1 / RFU, FAM179B / Fold change vs veh, FAM179B / RFU, BCL10 / Fold change vs veh, BCL10 / RFU, UHRF1BP1L / Fold change vs veh, UHRF1BP1L / RFU, BET1 / Fold change vs veh, BET1 / RFU, CNOT2 / Fold change vs veh, CNOT2 / RFU, ZNF268 / Fold change vs veh, ZNF268 / Fold change vs veh, ZNF507 / RFU, DGCR2 / Fold change vs veh, DGCR2 / RFU, WDSUB1 / Fold change vs veh, WDSUB1 / Fold change vs veh, HSP90B1 /// MIR3652 / RFU, ADSS / Fold change vs veh, ADSS / RFU, GK / Fold change vs veh, GK / RFU, ZNF148 / Fold change vs veh, ZNF148 / RFU, TAF9 / Fold change vs veh, TAF9 / RFU, SLC1A5 / Fold change vs veh, SLC1A5 / RFU, SLMO2 / Fold change vs veh, SLMO2 / RFU, ABCC4 / Fold change vs veh, ABCC4 / RFU, LOC101060439 /// RAP1B / Fold change vs veh, LOC101060439 /// RAP1B / RFU, RFX7 / Fold change vs veh, RFX7 / RFU, GTPBP10 / Fold change vs veh, GTPBP10 / RFU, CNEP1R1 / Fold change vs veh, CNEP1R1 / RFU, BIVM-ERCC5 /// ERCC5 / Fold change vs veh, BIVM-ERCC5 /// ERCC5 / RFU, ILF3 / Fold change vs veh, ILF3 / RFU 11762660_at / Fold change /veh 11762660_at / RFU VCAN (11757783_s_at) / Fold change /veh VCAN (11757783_s_at) / RFU DDX43 (11728927_at) / Fold change /veh DDX43 (11728927_at) / RFU KRT8 (11758188_x_at) / Fold change /veh KRT8 (11758188_x_at) / RFU NKD1 (11759106_at) / Fold change /veh NKD1 (11759106_at) / RFU SRD5A1 (11742802_a_at) / Fold change /veh SRD5A1 (11742802_a_at) / RFU TPSAB1 /// TPSB2 (11721975_s_at) / Fold change /veh TPSAB1 /// TPSB2 (11721975_s_at) / RFU GSTM3 (11746129_a_at) / Fold change /veh GSTM3 (11746129_a_at) / RFU IL23R (11737362_x_at) / Fold change /veh IL23R (11737362_x_at) / RFU TMEM51 (11727254_a_at) / Fold change /veh TMEM51 (11727254_a_at) / RFU PIWIL2 (11732686_x_at) / Fold change /veh PIWIL2 (11732686_x_at) / RFU ORM1 (11744905_x_at) / Fold change /veh ORM1 (11744905_x_at) / RFU CCDC152 (11743942_at) / Fold change /veh CCDC152 (11743942_at) / RFU ECM1 (11717891_a_at) / Fold change /veh ECM1 (11717891_a_at) / RFU IL23R (11748794_a_at) / Fold change /veh IL23R (11748794_a_at) / RFU TNFAIP8L3 (11732012_x_at) / Fold change /veh TNFAIP8L3 (11732012_x_at) / RFU MBOAT4 (11741988_at) / Fold change /veh MBOAT4 (11741988_at) / RFU 11764193_at / Fold change /veh 11764193_at / RFU TMEM53 (11763286_at) / Fold change /veh TMEM53 (11763286_at) / RFU MAGEB2 (11727129_at) / Fold change /veh MAGEB2 (11727129_at) / RFU TMEM200A (11744735_a_at) / Fold change /veh TMEM200A (11744735_a_at) / RFU CCDC152 (11751479_a_at) / Fold change /veh CCDC152 (11751479_a_at) / RFU FAM211A (11726209_a_at) / Fold change /veh FAM211A (11726209_a_at) / RFU RGS16 (11746705_a_at) / Fold change /veh RGS16 (11746705_a_at) / RFU VCAN (11755009_s_at) / Fold change /veh VCAN (11755009_s_at) / RFU RHOB (11743442_s_at) / Fold change /veh RHOB (11743442_s_at) / RFU RGS16 (11720943_a_at) / Fold change /veh RGS16 (11720943_a_at) / RFU RGS16 (11720944_at) / Fold change /veh RGS16 (11720944_at) / RFU, VPS4B / Fold change vs veh, VPS4B / RFU, CREB1 / Fold change vs veh, CREB1 / RFU, DNAJC13 / Fold change vs veh, DNAJC13 / RFU, GNAQ / Fold change vs veh, GNAQ / RFU, CDK5R1 / Fold change vs veh, CDK5R1 / RFU, ZRANB3 / Fold change vs veh, ZRANB3 / RFU, CUL4A / Fold change vs veh, CUL4A / RFU, CCNY / Fold change vs veh, CCNY / RFU, UFL1 / Fold change vs veh, UFL1 / RFU, COG3 / Fold change vs veh, COG3 / RFU, DIAPH2 / Fold change vs veh, DIAPH2 / RFU, SKA2 / Fold change vs veh, SKA2 / RFU, AFF3 / Fold change vs veh, AFF3 / RFU, LMF1 / Fold change vs veh, LMF1 / RFU, IPO11 / Fold change vs veh, IPO11 / RFU, DFFB / Fold change vs veh, DFFB / RFU, FOXP1 / Fold change vs veh, FOXP1 / RFU, CARD8 / Fold change vs veh, CARD8 / RFU, STRN3 / Fold change vs veh, STRN3 / RFU, ADK / Fold change vs veh, ADK / RFU, RASSF2 / Fold change vs veh, RASSF2 / RFU, WIPF1 / Fold change vs veh, WIPF1 / RFU, LARP1B / Fold change vs veh, LARP1B / RFU, RASA1 / Fold change vs veh, RASA1 / RFU, RB1 / Fold change vs veh, RB1 / RFU, PPFIA1 / Fold change vs veh, PPFIA1 / RFU, MAT2A / Fold change vs veh, MAT2A / RFU, CCT5 / Fold change vs veh, CCT5 / RFU, WDR92 / Fold change vs veh, WDR92 / RFU, CUX1 / Fold change vs veh, CUX1 / RFU, TTC7A / Fold change vs veh, TTC7A / RFU, TMEM135 / Fold change vs veh, TMEM135 / RFU, DEPTOR / Fold change vs veh, DEPTOR / RFU, CPM / Fold change vs veh, CPM / RFU, DNAJB6 / Fold change vs veh, DNAJB6 / RFU, CACNA2D3 / Fold change vs veh, CACNA2D3 / RFU, DTX4 / Fold change vs veh, DTX4 / RFU, TFCP2 / Fold change vs veh, TFCP2 / RFU, GMCL1 /// GMCL1P1 / Fold change vs veh, GMCL1 /// GMCL1P1 / RFU, AEBP2 / Fold change vs veh, AEBP2 / RFU, SNHG1 /// SNORD22 /// SNORD25 /// SNORD26 /// SNORD27 /// SNORD28 /// SNORD29 /// SNORD31 / Fold change vs veh, SNHG1 /// SNORD22 /// SNORD25 /// SNORD26 /// SNORD27 /// SNORD28 /// SNORD29 /// SNORD31 / Fold change (Aza/veh), C12orf56 (ProbeSet 11735607_a_at) / Fold change (ACY-1035/veh), C12orf56 (ProbeSet 11735607_a_at) / Fold change (Aza/veh), FGFR1OP (ProbeSet 11751329_s_at) / Fold change (ACY-1035/veh), FGFR1OP (ProbeSet 11751329_s_at) / Fold change (Aza/veh), VPS36 (ProbeSet 11739960_a_at) / Fold change (ACY-1035/veh), VPS36 (ProbeSet 11739960_a_at) / RFU SYPL1 (11715823_x_at) / Fold change /veh SYPL1 (11715823_x_at) / RFU IGFBP7 (11715501_s_at) / Fold change /veh IGFBP7 (11715501_s_at) / RFU REEP3 (11722064_at) / Fold change /veh REEP3 (11722064_at) / RFU IGLL1 (11728026_x_at) / Fold change /veh IGLL1 (11728026_x_at): dose or concentration left out as unconfirmed
# Settings: MV-4-11 cells, 48 hours
smiles,measurement,value
Nc1ncn([C@@H]2O[C@H](CO)[C@@H](O)[C@H]2O)c(=O)n1 [azacitidine],RFU SPINT1 (11716480_a_at),23.10 RFU
